From patent US20220339110A1, “FAST CONSOLIDATING COMPOUNDS” (Universität Innsbruck, priority 2019, published 2022)

Assays:
Format in all cases: physicochemical
[1] = Moulding process: time to stable tablets (consolidation/solidification time) and liquid amount after wetting the powder; conditions: for consolidation/solidification time (in words): wetted with water
Method: α-Lactose anhydrate was transferred into wells of a moulding form and wetted with pure water and water/alcohol mixtures, as shown in FIG. 2. Pure water and aqueous EtOH solutions, 25% (v/v) and 50% EtOH (v/v), ratio by volume, were used as solvents. These experiments were performed to measure the time needed for the formation of stable tablets, to determine the optimal amount of solvent, and to determine the optimal water:alcohol ratio in water/alcohol mixtures.
The solidification time (time until the tablets show sufficient hardness for handling) after addition of the solvent was determined using pure water and an aqueous glucose solution. It was observed that the solidification time of anhydrous glucose is much shorter when glucose solutions are applied instead of pure water. Glucose anhydrate solidifies after 10-15 min when water is used but hardens within 2-6 minutes after the application of glucose solutions. The amount of glucose in the solution is less critical for the solidification time, a concentration of 25 wt % is sufficient.
The moulding form tests were carried out with two different solvents: a) water and b) 50% EtOH (v/v) solution.
In a first experiment, tablets with amorphous Ca-L-Lactate (L-CaLac) using pure water were produced.
Wetting partly anhydrous MgSO4 (7 wt % water content) with pure water results in solid tablets. After 5 minutes the tablets can be unbaged from the moulding form. The wettability is not as good as for the α-lactose powders. About 50-60 μl water were added per 100 mg powder. By using a saturated aqueous solution of MgSO4 the hardening time could be halved (2-3 minutes).

[2] = Drug load capacity test of moulded tablets with glass beads (Spheriglass 2429); conditions: for Consolidation time / Consolidation time (in words): loaded with glass beads; for time to solid/stable tablets (in words): mixture with Spheriglass 2429 (50 wt % where stated), water
From the text: As model substance for the drug load capacity test, Spheriglass 2429 (glass beads, Potters Europe) was used, because there are no interactions between the glass beads and lactose to exclude other effects. Spheriglass 2429 has a particle size distribution of 53-106 μm. It was mixed with refluxed and sieved Spherolac 100 anhydrate (Spherolac 100 AH) (<250 μm) in a ratio of 30 and 60 wt %. […] The higher the amount of Spheriglass 2429 the less binder solution is needed, because of the decreasing amounts of water binding excipients.
A mixture of 50 wt % anhydrous glucose and 50 wt % Spheriglass 2429 was wetted with a 25 wt % glucose solution and pure water. The aim of this experiment was to investigate if the consolidation time is slowed down by loading a slower solidifying hydrate (in comparison to α-Lactose anhydrate) with a non-matrix-forming substance. […] The advantages of the use of glucose are rather seen as additive to other fast consolidating excipients to improve or modify the consolidation process, its rate, and the properties of the product.

[3] = Permanent stability of Na2SO4 tablets with binder in the wetting liquid
Method: Attempts were undertaken to ensure the permanent stability of the Na2SO4 (decahydrate) tablets by adding binder polymers to the wetting liquid. Amounts of 5 wt % and 7.5 wt % aqueous PVA 388 solutions were tested. […] The tests show the possibility of a new approach: rapid solidification by hydrate formation and permanent stability through additional binders.

[4] = Mercury intrusion porosimetry of lactose tablets
Method: The porosity, ratio between the sample void volumes and its external volume, of a tablet should be high if a fast disintegration is desired (e.g. for sublingual tablets). Porosity was measured using mercury porosimetry. For a complete mercury intrusion porosimetry (MIP) measurement, two different porosimeter types are needed—a low-pressure porosimeter (LP-MIP) and a high-pressure porosimeter (HP-MIP). As the LP-MIP, Pascal 140 (Thermo Fisher Scientific, I-Milano) was used and the Porosimeter 2000 (Carlo Erba, I-Milano) as the HP-MIP. Pure Spherolac 100 was used for the experiments.

[5] = Disintegration time of lactose tablets
From the text: Mercury porosimetry of the 3D-powder printed tablet indicated a porosity of 63.8% and an average pore radius of 48 Micron. […] Also the tablets produced by the molding process show porosities around 50% whereas those of the pressed tablets are much smaller. The high porosity guarantees a fast intrusion of fluids into the tablet and is thus an important prerequisite of a fast disintegration.

[6] = Mercury intrusion porosimetry of lactose tablets; conditions: 3D-powder printed tablet; calculated value
[7] = Tablet hardness, three-point-break tester; conditions: 200 mg
Method: The tablet hardness was measured with a three-point-break tester by Charles Ischi AG (HC 6.2 50 N).

[8] = 50 wt % Spheriglass 2429, 25 wt % glucose solution and pure water
[9] = production method: 3D-powder printing
[10] = production method: moulding process
[11] = 5 wt % PVA 388 in 50% EtOH (v/v)
[12] = 7.5 wt % PVA 388 in 50% EtOH (v/v)
[13] = 10 wt % PVA 388 in 50% EtOH (v/v)
[14] = production method: compaction 10 kN
[15] = production method: compaction 30 kN

Compound: C[C@H](O)C(=O)[O-].C[C@H](O)C(=O)[O-].[Ca+2] [Ca-Lactate anhydrate, anhydrous Ca-Lactate]
- Consolidation time ([1]; solution: water): 1 to 2 min
- consolidation/solidification time (in words) [1]: within one minute
- solidification time ([2]; 50 wt % Spheriglass 2429, 50% EtOH (v/v) binder solution): ca. 45 min
- Consolidation time ([2]; solvent H2O): 1 to 2 min

Compound: O.O=S(=O)([O-])[O-].O=S(=O)([O-])[O-].[Ca+2].[Ca+2] [Calcium sulphate hemihydrate, reference compound]
- Consolidation time ([1]; solution: water): ca. 35 min

Compound: OC[C@H]1OC(O)[C@H](O)[C@@H](O)[C@@H]1O (some centres unmarked) [Glucose anhydrate]
- solidification time ([1]; glucose solutions applied): 2 to 6 min
- Consolidation time ([1]; solution: aqueous glucose solution (25-50 wt %)): 2 to 6 min
- Consolidation time ([1]; solution: water): ca. 10 min
- solidification time ([1]; water): 10 to 15 min
- state of tablets after 10 minutes [2, 8]: still rather soft
- time after which tablets could be removed (in words) [2, 8]: After four minutes
- Consolidation time ([2]; solvent H2O): >10 min

Compound: O=C([O-])CC(O)(CC(=O)[O-])C(=O)[O-].O=C([O-])CC(O)(CC(=O)[O-])C(=O)[O-].[Mg+2].[Mg+2].[Mg+2] [Mg Citrate anhydrate, anhydrous Mg Citrate]
- time to stable tablets ([1]; pure water, with seed crystals of the dodecahydrate (about 2%)): 1 to 4 min
- Consolidation time ([1]; solution: water): 1 to 4 min
- solidification time ([1]; without seed crystals): about 4 min
- time to stable tablets ([2]; 50% wt Spheriglass 2429, wetting with water): ≥ 10 min
- Consolidation time ([2]; solvent H2O): >10 min

Compound: O=S(=O)([O-])[O-].[Mg+2] [MgSO4 anhydrate]
- Consolidation time (in words) ([1]; solution: water): few seconds
- consolidation/solidification time (in words) [1]: within a few seconds
- Consolidation time (in words) ([2]; solvent H2O): few seconds
- time to solid/stable tablets (in words) [2]: after a few seconds

Compound: O=S(=O)([O-])[O-].[Na+].[Na+] [Na2SO4 anhydrate]
- Consolidation time (in words) ([1]; 50% EtOH (v/v) solution): within one minute
- Consolidation time (in words) ([1]; solution: water): few seconds
- consolidation/solidification time (in words) [1]: within a few seconds
- Consolidation time (in words) ([2]; solvent H2O): few seconds
- time to solid/stable tablets (in words) [2]: within a few seconds
- mechanical stability of tablets (in words) ([3]; 7.5 wt % aqueous PVA 388 solution, after drying two and a half days at 22° C. or 40° C.): mechanically stable tablets
- mechanical stability of tablets the next day (in words) ([3]; wetted with 5 wt % aqueous PVA 388 solution): still could be easily crushed

Compound: OC[C@H]1O[C@H](OC[C@H]2O[C@H](O[C@]3(CO)O[C@H](CO)[C@@H](O)[C@@H]3O)[C@H](O)[C@@H](O)[C@@H]2O)[C@H](O)[C@@H](O)[C@H]1O [Raffinose anhydrate]
- Consolidation time (in words) ([1]; 50% EtOH (v/v) solution): about four to five minutes
- Consolidation time (in words) ([1]; solution: water): few seconds
- consolidation/solidification time (in words) [1]: within a few seconds
- Consolidation time ([2]; solvent H2O): 2 min
- Consolidation time ([2]; solvent H2O/EtOH 1:1): 4 min
- time to solid/stable tablets (in words) [2]: Two minutes
- time after which tablets could be removed ([2]; with Spheriglass, 50% EtOH (v/v) solution): 2 to 4 min

Compound: OC[C@H]1O[C@@H](O[C@H]2[C@H](O)[C@@H](O)[C@@H](O)O[C@@H]2CO)[C@H](O)[C@@H](O)[C@H]1O [Spherolac 100 AH]
- Average Pore Radius ([4]; 3D-powder printed tablet): 48 Micron
- porosity (mercury porosimetry) ([4]; 3D-powder printed tablet): 63.8%
- Average Pore Radius [4, 9]: 48 μm
- Porosity [4, 9]: 63.8%
- Average Pore Radius [4, 10]: 2.4 μm
- Porosity [4, 10]: 49%
- Porosity ([4]; tablets produced by the molding process): around 50%
- disintegration time (in words) ([5]; printed tablets): few seconds
- calculated porosity [6]: 71.3%
- time to stable tablets after wetting (in words) ([2]; mixed with Spheriglass 2429 at 30 and 60 wt %): within a few seconds
- Average hardness of tablet [7, 11]: 10.45 N
- Average hardness of tablet ([7]; 5 wt % aq. PVA 388): 8.65 N
- Average hardness of tablet [7, 12]: 16.75 N
- Average hardness of tablet ([7]; 7.5 wt % aq. PVA 388): 12.2 N
- Average hardness of tablet [7, 13]: 20.2 N
- Average hardness of tablet ([7]; 10 wt % aq. PVA 388): 14.75 N
- Average hardness of tablet ([7]; binder solution: water): 9.4 N

Compound: O.OC[C@H]1O[C@@H](O[C@H]2[C@H](O)[C@@H](O)[C@@H](O)O[C@@H]2CO)[C@H](O)[C@@H](O)[C@H]1O [Spherolac 100 MH, α-Lactose monohydrate]
- Average Pore Radius [4, 14]: 0.6 μm
- Porosity [4, 14]: 12%
- Average Pore Radius [4, 15]: 0.2 μm
- Porosity [4, 15]: 5%
- disintegration time (in words) ([5]; tablets produced at compaction pressure of 30 kN): several minutes
- Average hardness of tablet [7, 11]: 5.85 N
- Average hardness of tablet [7, 12]: 8.1 N
- Average hardness of tablet [7, 13]: 13.1 N

Compound: OC[C@H]1O[C@@H](O[C@H]2[C@H](O)[C@@H](O)[C@@H](O)O[C@@H]2CO)[C@H](O)[C@@H](O)[C@H]1O [Stable α-Lactose anhydrate]
- Consolidation time ([1]; solution: water): 0.083 to 0.167 min
- time to stable tablets ([1]; water/alcohol mixtures (25% and 50% EtOH v/v)): more than 10 seconds
- time to stable tablets ([1]; wetting with pure water): 0.083 to 0.167 min
- Consolidation time (in words) ([2]; solvent H2O): few seconds
- Consolidation time (in words) ([2]; solvent H2O/EtOH 1:1): few seconds
